Data reported in patent US20250333782A1 (ILLUMINA, INC., priority 2022, published 2025).
Where a name gives a salt, the structure may show the parent alone.

Assays:
[1] = tested on: 20mer oligodeoxyribonucleotide TTTCAGCTC[5caC]GGTCACGCTC; experiment: Reaction kinetics of caC reduction on 20mer, boranes with cationic moieties; conditions: 20 μM 20mer, 10 mM borane, NaOAc pH 4.3, 25° C.; FIG. 7
Description: (§1) To 45 μL of an aqueous solution of 0.111 mM 5caCpG dimer (0.1 mM final concentration) or 55.6 μM 7mer oligodeoxyribonucleotide (50 μM final concentration, sequence: AT[5caC]GCTA) or 22.2 μM 20mer oligodeoxyribonucleotide (20 μM final concentration, sequence: TTTCAGCTC[5caC]GGTCACGCTC) in 556 mM NaOAc buffer (pH 4.3, 500 mM final concentration) were added 5 μL of a stock solution of the respective borane (100 mM in DMF, 10 mM final concentration) and the reaction was incubated at 25° C. after short vortexing. Aliquots of 8 μL were taken at set time points and were quenched immediately with 4 μL alpha-ketoglutarate monosodium salt (1.0 M in H2O) and analysed by RP-UHPLC for consumption of the caC moiety in the starting material and formation of the product DHU moiety.

[2] = tested on: 7mer oligodeoxyribonucleotide AT[5caC]GCTA; experiment: Reaction kinetics of caC reduction on 7mer, boranes with cationic moieties; conditions: 50 μM 7mer, 10 mM borane, NaOAc pH 4.3, 25° C.; FIG. 7
Description: as §1

[3] = tested on: dsDNA (300 bp-500 bp long, containing 4 known caC sites per strand); experiment: caC detection of dsDNA by Illumina sequencing, one-step overnight incubation; conditions: one-step protocol, 100 mM borane, pH 4.3, 40° C., 16 h; expected beta=1; FIG. 4
Description: An aliquot of 2 M borane stock solution in DMF was added to a buffered solution containing calculated amount of dsDNA (300 bp-500 bp long, containing 4 known caC sites per strand), resulting in the final borane concentration of 100 mM and pH of 4.3 (0.5 M NaOAc). The reaction mixture (50 μL) was shaken at 40° C. for 16 h. Then, the samples were purified by 1.8×SPRI (pH adjusted with 1 M Tris buffer pH=9.0). The purified DNA was PCR-amplified using the NEB-Next Enzymatic Methyl-Seq kit's NEB-Next Q5U Master Mix along with IDT-ILMN NextEra UDI Index primers. Finally, 0.9×SPRI purification was performed. The DNA libraries were normalized to 2 nM and 20 pM sequenced on an Illumina NextSeq instrument. The sequencing data was analysed to extract the beta value, which reflects the percentage conversion of caC to T.
The boranes tested included 5-methylthiazole borane VM117, 3-aminopyridine borane (3 AP), 4-methylpyridine-borane (4MeP), 5-(methoxymethyl)-2,4-dimethyl-1,3-thiazole borane (VM293), and 4-hydroxymethylpyridine borane (4HMP). […] The percentage of caC sites were detected by Illumina sequencing.

[4] = tested on: human DNA NA12878 treated with human TET2 dioxygenase; experiment: caC detection by Illumina sequencing, two-step incubation; conditions: borane 40 mM or 100 mM, pH 4.3, 40° C. 2.5 hours, quench alpha-ketoglutarate, then 40° C. 18 hours; FIG. 5
Description: A sample of human DNA NA12878 was treated with human TET2 dioxygenase to oxidise mC to caC. The sample was purified by a 1.8×SPRI and resuspended in RSB buffer. 2 M stocks of the amine-boranes were prepared in DMF, then added to the DNA to a final concentration of 40 mM or 100 mM, along with pH 4.3 sodium acetate buffer to a final concentration of 0.5 M. For the one-step protocol, the samples were incubated at 40° C. for 18 hours and 750 rpm shaking. For the two-step protocol, the samples were incubated at 40° C. for 2.5 hours and 750 rpm shaking, then quenched with a 1 M solution of alpha-ketoglutarate at pH 4.3 (to a final concentration of 400 mM) and kept at 40° C. for 18 hours and 750 rpm shaking. After the incubation, all samples underwent a 1.8×SPRI purification after adding 1 M pH 9 TRIS to basify the pH. Libraries were then amplified via PCR using the NEB-Next Enzymatic Methyl-Seq kit's NEB-Next Q5U Master Mix along with NEBNext Multiplex Oligos for Illumina Index primers. A final 0.9×SPRI was performed, before libraries were normalized to 20 pM sequenced on an Illumina NovaSeq (2×151 cycles). The sequencing data was analysed to extract the beta value, which reflects the percentage conversion of 5mC or 5hmC to T.
The percentage caC sites were detected by Illumina sequencing.

| Compound | reaction kinetics of consumption of caC on the 20mer [1] | reaction kinetics of consumption of caC on the 7mer [2] | beta value (percentage of caC sites detected by Illumina sequencing; conversion of caC to T) [3] | beta values with two-step protocol compared with one-step protocol [4] |
| --- | --- | --- | --- | --- |
| C[N+](C)(C)CC(=O)NCc1ccncc1 [4AMP-Bet, 4-(Betainamidomethyl)pyridine borane (OBt/PF6 salt)] | efficient reaction kinetics of consumption of caC | efficient reaction kinetics of consumption of caC | – | – |
| [BH3-][n+]1cccc(N)c1 [3 AP, 3-aminopyridine borane] | – | – | ~1 | – |
| B[n+]1c(C)sc(COC)c1C [VM293, 5-(methoxymethyl)-2,4-dimethyl-1,3-thiazole borane] | – | – | ~1 | – |
| [BH3-][n+]1ccc(C)cc1 | – | – | ~1 | consistent with the value obtained with the one-step protocol |
| [BH3-][n+]1ccc(CO)cc1 [4HMP, 4-Hydroxymethylpyridine borane] | – | – | ~1 | – |
| B[n+]1csc(C)c1 [VM117, 5-methylthiazole borane] | – | – | ~1 | consistent with the value obtained with the one-step protocol |
